# Measured values from patent US20100041744A1, “OILY PACLITAXEL COMPOSITION AND FORMULATION FOR CHEMOEM[…] PREPARATION METHOD THEREOF” (priority 2001, published 2010).
# What was measured:
# physchem = settings: oil or lipid
# Procedure: (§1) One milliliter of Lipiodol (Lipiodol Ultra-fluid, Laboratoire Guerbet, France, Iodine content 38% by weight) was used as an oily contrast medium. Lipiodol and 2, 4, 6, 8, 10 or 11 mg of paclitaxel (Samyang Genex, Korea) were added in test tubes (micro test tubes with safety lock, polyethylene, 1.5 ml, Eppendorf AG, Germany) and solubilized by stirring at room temperature. To speed up the solubilization process, it is acceptable to raise the temperature to 35˜45° C. or to sonicate in a bath type sonicator.
# (§2) One milliliter of Lipiodol (Lipiodol Ultra-fluid, Laboratoire Guerbet, France, Iodine content 38% by weight) and 10 mg of paclitaxel (Samyang Genex, Korea) were added in test tubes and solubilized by stirring at room temperature. To speed up the solubilization process, the temperature of the mixture was raised to 40° C.
# (§3) A mixture of 1 ml of Lipiodol (Lipiodol Ultra-fluid, Laboratoire Guerbet, France, Iodine content 38% by weight) and 0.01 ml of tricaprylin (Sigma Chemical Co.) and 12 mg of paclitaxel (Samyang Genex, Korea) were added in a test tube and solubilized by stirring at room temperature. To speed up the solubilization process, the composition was sonicated in a bath type sonicator.
# [1] = Solubilization / solubility of paclitaxel in oily contrast medium
# Procedure: as §1, §2, §3
compound,measurement,setting,value
CC(=O)O[C@H]1C(=O)[C@@]2(C)[C@H]([C@H](OC(=O)c3ccccc3)[C@]3(O)C[C@H](OC(=O)[C@H](O)[C@@H](NC(=O)c4ccccc4)c4ccccc4)C(C)=C1C3(C)C)[C@]1(OC(C)=O)CO[C@@H]1C[C@@H]2O [paclitaxel],solubility,"physchem; Lipiodol (oily contrast medium), 26 °C, thermodynamic from solid",~10000 µg/mL
same,solubility,physchem,≤ 13000 µg/mL
same,solubility of paclitaxel in mixed oil system of lipiodol/tricaprylin compared with lipiodol alone,[1],higher
